Laboratory results: article PMC8949771, “Gold(I)-Mediated Rapid Cyclization of Propargylated Peptides via Imine Formation” (Journal of the American Chemical Society, 2022)

Experiments:
[1] = Au(I)-mediated imine macrocyclisation (JohnPhosAu(MeCN)SbF6 2 equiv, Et4NBr 16 equiv) then in situ NaBH4 reduction to cyclic amine, HPLC isolation; conditions: the molecule shown is the open-chain precursor; 24-membered ring; DMF; 8.0 mM; 37.0 °C; 1.0 h; 2 steps
HeLa cells = assay: Live-cell uptake, confocal microscopy; type: cell-based; conditions: 2.5 μM, 1 h incubation, FITC signal, repeated in duplicates
Protocol: With both peptides in hand (5 and 6, Figure 7A), we investigated the binding efficiency using our fluorescence-based competitive assay.[38] […] Encouraged by these in vitro results, we explored the cellular uptake and apoptosis efficacy of the new cyclic peptide in living cells. To investigate the live cell delivery efficacy of the FITC-labeled peptides (9 and 10), both cyclic peptides were incubated for 1h with HeLa cells at different concentrations of 2.5, 5, 7, and 10 μM. […] After assessing the cellular uptake, we probed the controlled cell death or apoptosis in HeLa cells using only 2.5 μM peptides (3 and 5) and the known proteasome inhibitor MG-132 as a positive control. […] (Figure 7E).
To investigate the cellular delivery efficiency of the new cyclic peptide HeLa (CCL-2™) cells were seeded on ibidi poly-L-lysine (PLL) 8 well µ-slides in […] and were allowed to reach […]
~90% confluency over 24h. Cells were washed three times with warm PBS and serum-free DMEM (high glucose) followed by incubation for 1h with warm PBS/serum-free medium containing containing 2.5, 5, and 10 µM of fluorescently labeled cyclic peptides (9 and 10). Cells were then washed three times with warm PBS followed by adding 0.1 mg/ml heparin sulfate in PBS and incubating for 5min. […]

Compound: C#CCN(CC(N)=O)C(=O)CNC(=O)[C@H](C)NC(=O)[C@H](CCCNC(=N)N)NC(=O)[C@H](Cc1ccc(O)cc1)NC(=O)[C@H](CC(C)C)NC(=O)CNC(=O)[C@@H](N)Cc1c[nH]c2ccccc12 [H-Trp-Gly-Leu-Tyr-Arg-Ala-Gly-(N-propargyl)Gly-NH2]
- ring closure, yield over several steps [1]: 74%

Compound: CC1=NCC(=O)N[C@@H](Cc2c[nH]c3ccccc23)C(=O)N[C@@H](Cc2ccccc2)C(=O)N[C@@H](CC(=O)O)C(=O)N[C@@H](CC(=O)O)C(=O)N[C@@H](CC(C)C)C(=O)N[C@@H](Cc2ccc(O)cc2)C(=O)N[C@@H](Cc2c[nH]c3ccccc23)C(=O)N[C@@H](Cc2ccccc2)C(=O)N[C@@H](C(C)C)C(=O)N[C@@H](C)C(=O)N[C@@H](Cc2ccc(O)cc2)C(=O)N(CC(=O)N[C@@H](C)C(=O)N[C@@H](CSC2CC(=O)N(c3ccc4c(c3)C(=O)OC43c4ccc(O)cc4Oc4cc(O)ccc43)C2=O)C(N)=O)C1 (some centres unmarked) [Peptide 10]
- cellular uptake (fluorescence in cells) (HeLa cells): significant fluorescence
